Measurements from PMC9936145, “Discovery of a cytochrome P450 enzyme catalyzing the formation of spirooxindole alkaloid scaffold” (Frontiers in Plant Science, 2023).

Tested on: 3eCIS (MsCYP72056)
Settings: 250 µM NADPH; HEPES pH 7.5; 0-300 µM hirsuteine; CPR co-expressed

## C=C[C@H]1CN2CCc3c([nH]c4ccccc34)[C@H]2C[C@@H]1/C(=C\OC)C(=O)OC [hirsuteine]
  Km: 68.3 µM
